Source: patent US20210269440A1 (BETTA PHARMACEUTICALS CO., LTD, priority 2018, published 2021)

Target: T1, PD-1/PD-L1 protein/protein interaction (Homo sapiens, UniProt Q9NZQ7)
T1 construct: Recombinant human PD-L1 protein (19-238) with a His-tag at the C-terminus; purchased AcroBiosystems PD1-H5229 (PD-L1); PD1-H5257 (PD-1)
Assay: PD-1/PD-L1 homogenous time-resolved fluorescence (HTRF) binding assay
Method: Resolved Fluorescence (HTRF) Binding Assay
The assays were conducted in a standard black 384-well polystyrene plate with a final volume of […]. Inhibitors were first serially diluted in DMSO and then added to the plate wells before the addition of other reaction components. The final concentration of DMSO in the assay was 1%. The assays were carried out at 25° C. in the PBS buffer (pH 7.4) with 0.05% Tween-20 and 0.1% BSA. […] Plates were centrifuged and proteins were preincubated with inhibitors for 40 min. The incubation was followed by the addition of 10 μL of HTRF detection buffer supplemented with Europium cryptate-labeled anti-human IgG (PerkinElmer-AD0212) specific for Fc and anti-His antibody conjugated to SureLight®—Allophycocyanin (APC, PerkinElmer-AD0059H). After centrifugation, the plate was incubated at 25° C. for 60 min. […] Final concentrations in the assay were […] PD1, 10 nM PD-L1, 1 nM europium anti-human IgG and 20 nM anti-His-Allophycocyanin. IC50 determination was performed by fitting the curve of percent control activity versus the log of the inhibitor concentration using the GraphPad Prism 5.0 software.

T1 sequence (Q9NZQ7 19-238): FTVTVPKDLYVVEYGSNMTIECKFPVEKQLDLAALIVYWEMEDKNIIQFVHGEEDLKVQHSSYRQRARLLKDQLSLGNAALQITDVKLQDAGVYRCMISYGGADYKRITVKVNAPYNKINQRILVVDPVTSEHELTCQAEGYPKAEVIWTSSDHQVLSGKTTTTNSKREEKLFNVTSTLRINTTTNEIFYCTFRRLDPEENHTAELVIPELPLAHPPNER

IC50 [nM]	Structure (SMILES)
2 to 10	Cc1c(Nc2nccc3cc(CN4CCCCC4C(=O)O)cnc23)cccc1-c1cccc(OC(C)CCN2CCOCC2)c1C (stereo not shown) [Compound 55, 1-((8-((2,2′-dimethyl-3′-((4-morpholinobutan-2-yl)oxy)-[1,1′-biphenyl]-3-yl)amino)-1,7-naphthyridin-3-yl)methyl)piperidine-2-carboxylic acid]
> 150	Cc1c(Nc2nccc3cc(CN4CCCCC4C(=O)O)cnc23)cccc1-c1cccc2c1CCC2OCCN1CCOCC1 (stereo not shown) [Compound 56, 1-((8-((2-methyl-3-(1-(2-morpholinoethoxy)-2,3-dihydro-1H-inden-4-yl)phenyl)amino)-1,7-naphthyridin-3-yl)methyl)piperidine-2-carboxylic acid]

Continued, compound first:

Structure (SMILES)	IC50 [nM]
Cc1c(Nc2nccc3cc(CN4CCCCC4C(=O)O)cnc23)cccc1-c1cccc(OCC2(CN3CCOCC3)CC2)c1C (stereo not shown) [Compound 54, 1-((8-((2,2′-dimethyl-3′-((1-(morpholinomethyl)cyclopropyl)methoxy)-[1,1′-biphenyl]-3-yl)amino)-1,7-naphthyridin-3-yl)methyl)piperidine-2-carboxylic acid]	2 to 10
Cc1c(/C=C/CCN2CCOCC2)cccc1-c1cccc(Nc2nccc3cc(CN4CCCCC4C(=O)O)cnc23)c1C (stereo not shown) [Compound 57, (E)-1-((8-((2,2′-dimethyl-3′-(4-morpholinobut-1-en-1-yl)-[1,1′-biphenyl]-3-yl)amino)-1,7-naphthyridin-3-yl)methyl)piperidine-2-carboxylic acid]	2 to 10
Cc1c(CCCCN2CCOCC2)cccc1-c1cccc(Nc2nccc3cc(CN4CCCCC4C(=O)O)cnc23)c1C (stereo not shown) [Compound 58, 1-((8-((2,2′-dimethyl-3′-(4-morpholinobutyl)-[1,1′-biphenyl]-3-yl)amino)-1,7-naphthyridin-3-yl)methyl)piperidine-2-carboxylic acid]	2 to 10
COc1ccc(-c2cccc(Nc3nccc4cc(CN5CCCCC5C(=O)O)cnc34)c2C)cc1OCCCN1CCOCC1 (stereo not shown) [Compound 59, 1-((8-((4′-methoxy-2-methyl-3′-(3-morpholinopropoxy)-[1,1′-biphenyl]-3-yl)amino)-1,7-naphthyridin-3-yl)methyl)piperidine-2-carboxylic acid]	2 to 10
Cc1c(Nc2nccc3cc(CN4CCCCC4C(=O)O)cnc23)cccc1-c1ccc(C(F)(F)F)c(OCCCN2CCOCC2)c1 (stereo not shown) [Compound 60, 1-((8-((2-methyl-3′-(3-morpholinopropoxy)-4′-(trifluoromethyl)-[1,1′-biphenyl]-3-yl)amino)-1,7-naphthyridin-3-yl)methyl)piperidine-2-carboxylic acid]	> 150
